{"source": "patent US5235045A", "about": "“Non-azo naphthalimide dyes” (priority 1992, dated 1993)", "tested_on": "H9 cells", "assay": "Effect of Ed6Br and 420 nm light on H9 cells (Trypan Blue)", "type": "cell-based, human", "parameters": "live cells / dead cells: unit not given here", "method": "H9 cells (an immortal human T-cell lymphoma) were cultured in RPMI-1640 medium containing 10% additional fetal calf serum hold in air with a 5% CO2 atmosphere at 37.5° C. to a cell density in the range of 10^5 -10^7 per ml. Cells were, harvested by centrifugation and six 3ml. […] The remaining 3 samples wrapped in aluminum foil were handled identically but not irradiated. Immediately after irradiation, the cells in all samples were sedimented by centrifugation at 450 x g for 10 minutes and the cell pellets individually resuspended to the original 3 ml volume of RPMI-1640 containing an additional 10% fetal calf serum plus Gentamycin antibiotic. The samples were incubated for 24 hr. under normal culture conditions cited above. Cell viability was assessed by Trypan Blue dye exclusion counts using a standard hemocytometer after 24 hr incubation. […]", "key": {"[1]": {"conditions": "5 μM, irradiated 10 J/cm^2, 420 nm"}, "[2]": {"conditions": "25 μM, irradiated 10 J/cm^2, 420 nm"}}}
{"smiles": "CCCCCCNc1c(Br)cc2c3c(cccc13)C(=O)N(CCCCCC)C2=O", "note": "[Compound VII, 3-bromo-4-(hexyl)amino-N-hexyl-1,8-naphthalimide]", "values": [{"measurement": "Cells/ml", "setting": "5 μM, dark", "value": "7.70 × 10^5 Cells/ml"}, {"measurement": "dead cells", "setting": "5 μM, dark", "value": 12}, {"measurement": "live cells", "setting": "5 μM, dark", "value": 77}, {"measurement": "Cells/ml", "setting": "[1]", "value": 0.0, "unit": "Cells/ml"}, {"measurement": "dead cells", "setting": "[1]", "value": 47}, {"measurement": "live cells", "setting": "[1]", "value": 0}, {"measurement": "Cells/ml", "setting": "25 μM, dark", "value": "9.9 × 10^5 Cells/ml"}, {"measurement": "dead cells", "setting": "25 μM, dark", "value": 11}, {"measurement": "live cells", "setting": "25 μM, dark", "value": 99}, {"measurement": "Cells/ml", "setting": "[2]", "value": 0.0, "unit": "Cells/ml"}, {"measurement": "dead cells", "setting": "[2]", "value": 41}, {"measurement": "live cells", "setting": "[2]", "value": 0}, {"measurement": "H9 cells inactivated or killed", "setting": "5 mM or greater (so in the source), activated by light, 1440 min", "value": "~100", "unit": "%"}, {"measurement": "cytotoxicity at 25 µM", "setting": "Homo sapiens, H9, 24 h, 25 µM, dark, printed approximately 10% or less, read-out: cells inactivated in absence of light", "value": "≤ 10", "unit": "%"}, {"measurement": "viability at 5 µM", "setting": "Homo sapiens, H9, light or radiation study, 24 h, 5 μM, irradiated 10 J/cm^2, 420 nm", "value": 0, "unit": "%"}, {"measurement": "viability at 25 µM", "setting": "Homo sapiens, H9, light or radiation study, 24 h, 25 μM, irradiated 10 J/cm^2, 420 nm", "value": 0, "unit": "%"}]}
